Assay results from patent US20240228973A9, “NON-ALCOHOLIC FATTY LIVER ARTIFICIAL TISSUE MODEL” (CELLARTGEN INC., priority 2021, published 2024).

Assays:
[1] = test system: normal liver organoids; assay: Viability of normal liver organoids treated with the drug (cytotoxicity); assay type: cell-based, human
Method: Also, when the viability of the normal liver organoids treated with the drug was analyzed to evaluate the cytotoxicity depending on the concentration of the drug, it was confirmed that the viability was 80% or more at 1 μM, 70% at 10 μM, and about 60% at 100 μM (FIG. 15B). That is, it was confirmed that liver toxicity increased as the treatment concentration of OCA increased.
(§1) Also, when the viability of the normal liver organoids treated with the drug was analyzed to evaluate the cytotoxicity depending on the concentration of the drug, it was confirmed that the viability was 70% or more at 1 μM to 10 μM and about 50% at 100 μM (FIG. 16B).
as §1, with “not affected at a concentration of up to 1 μM, and it was 80%” for “70%”, “at” for “at 1 μM to”, “60%” for “50%”, “17B).” for “16B).”

[2] = test system: human tissue-derived non-alcoholic steatohepatitis (NASH) liver organoids; assay: Drug efficacy evaluation in human tissue-derived NASH liver organoids co-cultured with EC, KC and HSC in LEM-Chip; assay type: cell-based
Description: (§2) Steatohepatitis (NASH) was induced in liver organoids in which a liver tissue microenvironment [vascular endothelial cells (E)+Kupffer cells (K)+hepatic stellate cells (S)] was constructed under culture conditions in which the decellularized liver tissue-derived LEM scaffold and the multiwell microfluidic device were combined, followed by treatment with obeticholic acid (OCA) at different concentrations. OCA (Obeticholic acid) is a semi-synthetic bile acid analogue that has conventionally been used to treat cholangitis and is a drug candidate whose efficacy has recently been verified in non-alcoholic steatohepatitis clinical trials. The NASH group was treated with 800 μM fatty acid for 3 days to induce a disease, and the NASH+OCA group was treated with 800 μM fatty acid and the corresponding drug for 3 days at different concentrations.
as §2, with “ezetimibe (Eze)” for “obeticholic acid (OCA)”, “Eze (Ezetimibe)” for “OCA (Obeticholic acid)”, “cholesterol absorption inhibitor and is a drug candidate” for “semi-synthetic bile acid analogue”, “hyperglycemic cholesterol” for “cholangitis”, “lipid abnormalities.” for “is a drug candidate whose efficacy has recently been verified in non-alcoholic steatohepatitis clinical trials.”, “NASH+Eze” for “NASH+OCA”
as §2, with “dapagliflozin (DAPA)” for “obeticholic acid (OCA)”, “DAPA (Dapagliflozin)” for “OCA (Obeticholic acid)”, “sodium-glucose transporter inhibitor and is a drug candidate” for “semi-synthetic bile acid analogue”, “diabetes.” for “cholangitis and is a drug candidate whose efficacy has recently been verified in non-alcoholic steatohepatitis clinical trials.”, “NASH+DAPA” for “NASH+OCA”

[3] = 800 μM fatty acid + drug for 3 days at different concentrations
[4] = drug concentration of 10 μM or more

O=C1[C@H](CC[C@H](O)c2ccc(F)cc2)[C@@H](c2ccc(O)cc2)N1c1ccc(F)cc1 [Eze, ezetimibe]
viability of the normal liver organoids ([1]; 1 μM to 10 μM drug): ≥ 70%
viability of the normal liver organoids ([1]; 100 μM drug): about 50%
amount of fat accumulation [2, 3]: reduced as the concentration increased
morphology and structure of the organoid [2, 3]: recovered
expression of the fibrosis marker, quantitative PCR [2, 4]: decreased to a level similar to that in the normal organoid
expression of the inflammation marker, quantitative PCR [2, 4]: decreased to a level similar to that in the normal organoid
expression of fibrosis-related marker (SMA), quantitative PCR ([2]; vs NASH group, 3 days): decreased
expression of inflammation-related marker (TNFα), quantitative PCR ([2]; vs NASH group, 3 days): decreased

CC[C@H]1[C@@H](O)[C@@H]2[C@H](CC[C@]3(C)[C@@H]([C@H](C)CCC(=O)O)CC[C@@H]23)[C@@]2(C)CC[C@@H](O)C[C@@H]12 [OCA, obeticholic acid]
viability of the normal liver organoids ([1]; 1 μM drug): ≥ 80%
viability of the normal liver organoids ([1]; 10 μM drug): 70%
viability of the normal liver organoids ([1]; 100 μM drug): about 60%
liver toxicity ([1]; as the treatment concentration increased): increased

CCOc1ccc(Cc2cc([C@@H]3O[C@H](CO)[C@@H](O)[C@H](O)[C@H]3O)ccc2Cl)cc1 [DAPA, dapagliflozin]
viability of the normal liver organoids ([1]; 10 μM drug): ≥ 80%
viability of the normal liver organoids ([1]; 100 μM drug): about 60%
viability of the normal liver organoids ([1]; concentration of up to 1 μM): not affected
